What was measured:
[1] = biological target: Xanthine oxidase (from bovine milk, Sigma) (Bos taurus (Bovine), UniProt P80457); experiment: Xanthine oxidase inhibitory activity; type: biochemical; conditions: xanthine 200 μM added at 100 μL/well, 10 minutes at room temperature, absorbance at 290 nm
Experimental: Xanthine Oxidase Inhibitory Activity
(1) Preparation of Test Compounds
Test compounds were dissolved in dimethyl sulfoxide (DMSO) (manufactured by Wako pure chemical) at 40 mM concentration and then diluted to intended concentrations with phosphate-buffered saline (PBS).
(2) Method for Measurement
Xanthine oxidase (from bovine milk, Sigma) was prepared with phosphate-buffered saline (PBS) at 0.02 units/mL, and then the solution was added to 96 well plates at 50 μL/well. In addition, test compounds diluted with PBS were added at 50 μL/well. Xanthine (manufactured by Wako pure chemical) at 200 μM prepared with PBS was added at 100 μL/well, and the reaction was conducted for 10 minutes at room temperature. Absorbance at 290 nm was measured by using a microplate reader SpectraMax Plus 384 (manufactured by Molecular device). The absorbance under a condition without xanthine is 0%, and control without test compounds is 100%. Fifty % inhibitory concentration of a test compounds (IC50) was calculated (Table 5). “Ex. No.” in the table indicates Example number.

human URAT1 = human URAT1 (Homo sapiens (Human), UniProt Q96S37); experiment: Inhibitory activity of uric acid transport with human URAT1 expressing cells; type: cell-based; conditions: 10 μM test compound; URAT1-expressing HEK293 cells; 14C uric acid 50 μM, 2 minutes at 37° C.; read-out: Percent inhibition of uric acid uptake
Sequence of human URAT1 (Q96S37 whole entry): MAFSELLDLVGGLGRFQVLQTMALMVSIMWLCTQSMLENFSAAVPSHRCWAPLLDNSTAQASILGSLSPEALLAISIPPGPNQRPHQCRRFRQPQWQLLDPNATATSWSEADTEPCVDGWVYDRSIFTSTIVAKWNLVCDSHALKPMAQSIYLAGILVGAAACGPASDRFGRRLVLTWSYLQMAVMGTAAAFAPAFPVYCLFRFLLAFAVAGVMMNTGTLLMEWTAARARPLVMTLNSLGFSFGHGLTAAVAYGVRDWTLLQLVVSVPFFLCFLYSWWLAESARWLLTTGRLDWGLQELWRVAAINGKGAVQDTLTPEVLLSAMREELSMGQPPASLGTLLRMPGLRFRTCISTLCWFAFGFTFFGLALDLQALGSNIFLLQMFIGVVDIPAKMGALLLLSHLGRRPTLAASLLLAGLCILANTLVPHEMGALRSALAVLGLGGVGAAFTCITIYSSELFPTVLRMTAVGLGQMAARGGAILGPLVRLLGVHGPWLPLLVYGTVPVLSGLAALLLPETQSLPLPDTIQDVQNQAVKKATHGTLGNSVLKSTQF
Experimental: Inhibitory Activity of Uric Acid Transport with Human URAT1 Expressing Cells
(1) Cells Used in the Test
URAT1-expressing HEK293 cells (HEK293 cells transfected with vector containing human URAT1 cDNA) and control cells (HEK293 cells transfected with vector alone) were used.
URAT1-expressing cells and control cells were seeded in collagen I-coated 24-well plates (manufactured by Becton, Dickinson and Company) at 1 to 4×10^5 cells/well, and cultured in CO2 incubator (37° C., CO2: 5%) for 1 to 3 days, and then the following measurement of uric acid transport was conducted. […]
After the medium was removed from the plates in which cells were seeded, and 1 mL of HBSS was added to the cells. […] The radioactivity was measured by means of a liquid scintillation counter. […]
Protein concentration in the cell lysates was determined by BCA Protein Assay Kit (manufactured by Pierce) and then amount of protein (mg/well) was calculated. […]
Uric acid uptake activity in each well was calculated by the following formula. Uric acid uptake activity (p mol/mg protein)=radioactivity (dpm/well)/[amount of protein (mg/well)×concentration of radioactivity in HBSS containing ^14C uric acid (dpm/p mol)]
Percent inhibition was calculated according to the following formula. […]

Sequence of Xanthine oxidase (from bovine milk, Sigma) (P80457 whole entry): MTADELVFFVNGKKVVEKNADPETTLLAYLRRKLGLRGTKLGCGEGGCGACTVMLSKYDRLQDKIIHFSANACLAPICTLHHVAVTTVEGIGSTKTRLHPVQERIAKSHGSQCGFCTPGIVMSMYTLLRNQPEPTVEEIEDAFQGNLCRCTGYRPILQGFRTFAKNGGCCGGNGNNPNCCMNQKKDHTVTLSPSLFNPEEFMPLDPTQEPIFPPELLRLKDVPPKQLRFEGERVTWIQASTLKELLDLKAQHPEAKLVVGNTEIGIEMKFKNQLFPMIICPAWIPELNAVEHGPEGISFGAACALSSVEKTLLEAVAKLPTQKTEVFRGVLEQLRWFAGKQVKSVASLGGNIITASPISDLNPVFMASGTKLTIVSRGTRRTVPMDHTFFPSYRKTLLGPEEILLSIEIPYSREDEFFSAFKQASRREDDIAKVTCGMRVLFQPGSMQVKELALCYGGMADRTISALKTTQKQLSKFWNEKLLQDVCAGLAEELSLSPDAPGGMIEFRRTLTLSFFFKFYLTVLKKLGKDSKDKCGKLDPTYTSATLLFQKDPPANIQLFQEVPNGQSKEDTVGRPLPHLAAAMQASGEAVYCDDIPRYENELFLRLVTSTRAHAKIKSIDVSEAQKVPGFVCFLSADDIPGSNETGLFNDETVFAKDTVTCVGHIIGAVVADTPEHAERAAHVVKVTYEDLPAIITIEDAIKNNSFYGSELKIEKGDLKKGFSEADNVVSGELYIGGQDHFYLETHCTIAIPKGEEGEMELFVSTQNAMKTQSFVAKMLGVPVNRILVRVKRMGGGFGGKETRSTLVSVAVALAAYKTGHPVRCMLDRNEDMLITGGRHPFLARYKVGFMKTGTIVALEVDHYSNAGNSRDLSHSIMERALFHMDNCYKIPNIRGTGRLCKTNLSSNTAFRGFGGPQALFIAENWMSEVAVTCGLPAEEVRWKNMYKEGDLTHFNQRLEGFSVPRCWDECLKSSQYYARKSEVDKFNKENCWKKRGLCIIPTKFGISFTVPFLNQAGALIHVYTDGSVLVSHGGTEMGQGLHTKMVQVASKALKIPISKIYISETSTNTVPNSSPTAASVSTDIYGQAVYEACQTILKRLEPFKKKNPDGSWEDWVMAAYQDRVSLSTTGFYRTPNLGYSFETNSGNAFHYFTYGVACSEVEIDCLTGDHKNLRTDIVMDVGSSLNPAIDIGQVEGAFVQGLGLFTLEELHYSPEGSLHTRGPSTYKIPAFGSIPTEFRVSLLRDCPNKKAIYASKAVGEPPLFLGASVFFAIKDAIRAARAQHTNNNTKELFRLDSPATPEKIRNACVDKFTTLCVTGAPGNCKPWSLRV

IC50 [1] | inhibition at 10 µM (human URAT1) | Structure (SMILES)
10 nM |  | N#Cc1cn(-c2ccc(C(=O)O)c(O)c2)c2ccsc12 [Example 5, 4-(6-Cyano-thieno[3,2-b]pyrrol-4-yl)-2-hydroxybenzoic acid]
10 nM |  | N#Cc1cn(-c2ccc(C(=O)O)c(O)c2)c2cscc12 [Example 7]
13 nM |  | Cc1cc2c(s1)c(C#N)cn2-c1ccc(C(=O)O)c(O)c1 [Example 1, 4-(6-Cyano-2-methyl-thieno[3,2-b]pyrrol-4-yl)-2-hydroxybenzoic acid]
14 nM |  | N#Cc1cn(-c2ccc(C(=O)O)c(O)c2)c2sc(Br)cc12 [Example 8]
13 nM | ≥ 50% | N#Cc1cn(-c2ccc(C(=O)O)c(O)c2)c2sccc12 [Example 9]
